Experimental data as given in ChEMBL document CHEMBL3244314, “Synthesis and xanthine oxidase inhibitory analysis of 1H-pyrrolo[3,2-c]pyridine-4,6(5H,7H)-dione (3,7-dideazaxanthine) and two of its derivatives” (J Med Chem, 1978).

What was measured:
[1] = biological target: T1, Xanthine dehydrogenase/oxidase (Bos taurus, UniProt P80457); test: Inhibition of bovine buttermilk xanthine oxidase by spectrophotometric analysis; details: cattle
[2] = biological target: T1, Xanthine dehydrogenase/oxidase; test: Noncompetitive inhibition of bovine buttermilk xanthine oxidase by Lineweaver-burk plot analysis; details: read-out: Kis

T1 sequence (P80457 whole entry): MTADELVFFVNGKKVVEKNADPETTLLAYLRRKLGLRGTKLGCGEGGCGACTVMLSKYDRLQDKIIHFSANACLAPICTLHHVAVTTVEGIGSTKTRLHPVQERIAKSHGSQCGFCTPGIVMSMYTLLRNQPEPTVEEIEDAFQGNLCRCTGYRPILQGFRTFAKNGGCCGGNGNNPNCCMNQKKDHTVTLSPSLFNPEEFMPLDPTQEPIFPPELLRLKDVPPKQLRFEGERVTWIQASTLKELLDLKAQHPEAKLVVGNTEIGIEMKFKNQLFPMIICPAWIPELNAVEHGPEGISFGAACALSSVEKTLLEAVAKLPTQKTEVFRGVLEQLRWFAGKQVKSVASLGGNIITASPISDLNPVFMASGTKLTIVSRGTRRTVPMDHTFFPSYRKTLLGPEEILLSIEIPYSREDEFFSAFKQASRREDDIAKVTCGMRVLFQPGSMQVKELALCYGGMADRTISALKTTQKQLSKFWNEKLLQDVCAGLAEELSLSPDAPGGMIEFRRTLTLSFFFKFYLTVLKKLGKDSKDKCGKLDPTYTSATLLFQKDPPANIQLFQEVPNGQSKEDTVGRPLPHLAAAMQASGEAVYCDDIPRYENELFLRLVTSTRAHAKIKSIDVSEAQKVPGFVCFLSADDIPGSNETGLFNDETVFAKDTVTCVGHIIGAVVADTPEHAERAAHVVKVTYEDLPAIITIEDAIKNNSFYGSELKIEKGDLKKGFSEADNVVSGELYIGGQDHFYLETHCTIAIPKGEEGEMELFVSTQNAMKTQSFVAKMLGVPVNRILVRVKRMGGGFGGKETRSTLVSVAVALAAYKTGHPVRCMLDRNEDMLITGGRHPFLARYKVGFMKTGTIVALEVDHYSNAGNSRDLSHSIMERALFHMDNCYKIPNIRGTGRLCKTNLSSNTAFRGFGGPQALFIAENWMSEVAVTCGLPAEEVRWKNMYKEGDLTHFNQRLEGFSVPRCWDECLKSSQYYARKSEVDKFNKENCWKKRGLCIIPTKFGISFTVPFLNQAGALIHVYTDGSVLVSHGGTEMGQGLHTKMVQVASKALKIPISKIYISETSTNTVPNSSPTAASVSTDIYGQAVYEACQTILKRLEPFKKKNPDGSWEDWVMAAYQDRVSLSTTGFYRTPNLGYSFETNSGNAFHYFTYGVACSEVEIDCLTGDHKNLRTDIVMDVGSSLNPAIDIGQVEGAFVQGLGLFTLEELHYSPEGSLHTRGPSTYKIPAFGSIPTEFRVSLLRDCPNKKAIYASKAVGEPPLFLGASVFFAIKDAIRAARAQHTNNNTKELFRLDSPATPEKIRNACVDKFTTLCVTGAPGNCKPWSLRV

Structure (SMILES)	inhibition (INH) [1]	Ki [2]
O=C1Cc2[nH]ccc2C(=O)O1	Not Active	–
CN1C(=O)Cc2[nH]ccc2C1=O	–	120 µM
O=C1Cc2[nH]ccc2C(=O)N1	–	92.5 µM
